Results published in patent US20140045689A1, “3,4-disubstituted pyrrole 2,5-diones and their use as fungicides” (priority 2011, published 2014).

Tests used:
Pyrenophora teres = test: Activity against net blotch Pyrenophora teres in the microtiter test; type: cell-based; settings: relative growth vs active substance-free control (=100%), absorption 405 nm, day 7 after inoculation
Phakopsora pachyrhizi = test: Protective control of soy bean rust on soy beans caused by Phakopsora pachyrhizi (greenhouse); type: in vivo; settings: % diseased leaf area, soy bean seedlings sprayed 1 day before inoculation, untreated control 90
Experimental: (§1) The active substances were formulated separately or together as a stock solution comprising 25 mg of active substance which was made up to 10 ml using a mixture of acetone and/or dimethyl sulfoxide (DMSO) and the emulsifier Wettol EM 31 (wetting agent having emulsifying and dispersing action based on ethoxylated alkylphenols) in a volume ratio of solvent/emulsifier of 99 to 1. This solution was then made up to 100 ml using water. This stock solution was diluted with the solvent/emulsifier/water mixture described to the active substance concentration given below.
Leaves of pot-grown soy bean seedlings were sprayed to run-off with an aqueous suspension, containing the concentration of active ingredient or their mixture as described below. The plants were allowed to air-dry. The trial plants were cultivated for 1 day in a greenhouse chamber at 23-27° C. and a relative humidity between 60 and 80%. Then the plants were inoculated with spores of Phakopsora pachyrhizi. To ensure the success the artificial inoculation, the plants were transferred to a humid chamber with a relative humidity of about 95% and 20 to 24° C. for 24 h. The trial plants were cultivated for fourteen days in a greenhouse chamber at 23-27° C. and a relative humidity between 60 and 80%. The extent of fungal attack on the leaves was visually assessed as % diseased leaf area.

Septoria tritici = test: Preventative control of leaf blotch on wheat caused by Septoria tritici (Septtr P1, greenhouse); type: in vivo; settings: % diseased leaf area, wheat seedlings sprayed 1 day before inoculation, untreated control 80
Experimental: as §1
Leaves of pot-grown wheat seedling were sprayed to run-off with an aqueous suspension of the active compound or their mixture, prepared as described. The plants were allowed to air-dry. At the following day the plants were inoculated with an aqueous spore suspension of Septoria tritici. Then the trial plants were immediately transferred to a humid chamber at 18-22° C. and a relative humidity close to 100%. After 4 days the plants were transferred to a chamber with 18-22° C. and a relative humidity close to 70%. After 4 weeks the extent of fungal attack on the leaves was visually assessed as % diseased leaf area.

Plasmopara viticola = type: in vivo; settings: % diseased leaf area on lower leaf surface, grape cuttings sprayed 1 day before inoculation, untreated control 100
Pyricularia oryzae = type: cell-based; settings: relative growth vs active substance-free control (=100%), absorption 405 nm, day 7 after inoculation

CN(C)C1=C(C#N)C(=O)N(C)C1=O
melting point: 120 °C

CN1C(=O)C(Oc2ccccc2)=C(Oc2ccccc2)C1=O
Growth at 32 ppm (%) (Pyrenophora teres): 1%

CCN1C(=O)C(Cl)=C(Sc2ccccc2S)C1=O
Disease (%) at 1000 pm Phakpa P1 (Phakopsora pachyrhizi): 3%

CCN1C(=O)C(Cl)=C(Sc2ccccc2O)C1=O
Disease (%) at 1000 pm Septtr P1 (Septoria tritici): 1%

COC1=C(OC)C(=O)N(C)C1=O
Disease (%) at 1000 pm Plasvi P1 (Plasmopara viticola): 20%

CN1C(=O)C(N)=C(Cl)C1=O
Disease (%) at 1000 pm Plasvi P1 (Plasmopara viticola): 7%

CSC1=C(SC)C(=O)N(C)C1=O [drawing 56]
Growth at 32 ppm (%) (Pyrenophora teres): 0%

CCN1C(=O)C(Cl)=C(Nc2ccccc2O)C1=O [drawing 57]
Growth at 32 ppm (%) (Pyrenophora teres): 15%

CCN1C(=O)C=C(Nc2ccccc2O)C1=O [drawing 58]
Growth at 32 ppm (%) (Pyrenophora teres): 12%

CSC1=C(SC)C(=O)N(C)C1=O [drawing 59]
Growth at 32 ppm (%) (Pyricularia oryzae): 0%

CCN1C(=O)C(Cl)=C(Nc2ccccc2O)C1=O [drawing 60]
Growth at 32 ppm (%) (Pyricularia oryzae): 10%

CCN1C(=O)C=C(Nc2ccccc2O)C1=O [drawing 61]
Growth at 32 ppm (%) (Pyricularia oryzae): 11%
